Assay results taken from US20240218327A1, “METHOD FOR QUICKLY AND EFFICIENTLY DIFFERENTIATING FUNCTIONAL GLIAL CELLS” (priority 2020, published 2024).

How the values were obtained:
[1] = test system: NFIB-induced astrocytes; assay: Calcium transient assay (Fluo-4 calcium imaging); format: cell-based, human
Method: To confirm whether the cells acquire the ability to change intracellular calcium concentration, gene set enrichment analysis (GSEA) was employed to validate the expression pattern of genes related to this specific function. This analysis involved comparing the ranked gene signature of day 0 cells versus day 14 cells, with genes related to calcium-mediated signaling (GO:0019722). […] Calcium imaging was conducted on cells on days 7 and 14 using Fluo-4, a calcium indicator, and the intracellular calcium transients between two time points were compared. For calcium imaging, the differentiated astrocytes were prepared on 12 mm coverslips. After replacing the cell culture medium with Hank's Balanced Salt Solution (HBSS, without calcium or magnesium) (Thermo Fisher Scientific), differentiated astrocytes were incubated with 5 μM Fluo-4 AM (Thermo Fisher Scientific) at 37° C. for 30 minutes and then washed twice with the HBSS solution before calcium imaging. Thereafter, intracellular calcium levels were analyzed using the Fluo-4 AM fluorescence dye detection method, employing a confocal microscope (Fluoview FV1000, Olympus). For this purpose, intensity images of 535 nm wavelength were captured at 488 nm excitation wavelength at a rate of one frame per 2 seconds. Intracellular calcium levels were expressed as a fluorescence ratio (F/FO), calculated as changes in the fluorescence intensity (F) after treatments with 30 μM ATP or 100 μM glutamate, compared to the initial fluorescence intensity (FO) in the resting state.

[2] = test system: NFIB-induced astrocytes; assay: Glutamate uptake analysis; format: cell-based, human; conditions: 100 µM of glutamate; after 3 hours; day 7 of differentiation; n=6
Description: Uptake of excitatory neurotransmitters such as glutamate is another critical function of the astrocytes in the nervous system. This is because excessive glutamate concentration results in excitotoxic damage to the nervous tissue, potentially causing neurodegeneration. As there was a gradual upregulation of the neurotransmitter recycling protein, GLUL, in due course of gene expression (FIG. 5C, indicated by a red box with an asterisk), the ability of the NFIB-induced astrocytes to take up glutamate was assessed throughout differentiation to determine whether the ability improves. The astrocytes were exposed to 100 µM of glutamate, and the concentration of glutamate remaining in the medium was measured after 3 hours on day 7 and day 14. […] This increased uptake correlates well with the gradual increment of various genes related to neurotransmitter uptake (GO: 0001504), including SCL1A3 (a gene encoding excitatory amino acid transporter 1, also known as GLAST) and ARL6IP5 (a gene encoding glutamate transporter EEAC1-interacting protein).

[3] = test system: hPSC-NPCs
Description: FIG. 8A illustrates clustering and scaled expression patterns for differentially expressed genes (DEGs) during the differentiation process using NFIB. […] FIG. 8E and FIG. 8F quantify the percentage of cells positive for each marker on day 14 of differentiation. […] Data is presented as the mean #s.e.m. (n=3) (* p<0.05, ** p<0.01, *** p<0.001).

glutamate
duration of asynchronous calcium oscillations ([1]; 100 μM glutamate, day 7 of differentiation): less than 100 seconds
average amplitude of calcium response ([1]; 100 μM glutamate, day 7 of differentiation, n=19): 4.92±0.32 F/FO
cells with amplitudes greater than 10 ([1]; 100 μM glutamate, day 14 of differentiation): 32.4%
amplitude of intracellular calcium peaks ([1]; 100 μM glutamate, day 14 of differentiation, n=26): 9.63±1.07 F/FO
glutamate uptake [2]: 12.34±1.17%

Nc1ncnc2c1ncn2[C@@H]1O[C@H](COP(=O)(O)OP(=O)(O)OP(=O)(O)O)[C@@H](O)[C@H]1O [ATP]
cells with amplitude of calcium transients (F/FO) less than 3, among total cells ([1]; 30 μM ATP, day 7 of differentiation, n=70): 84.3%
amplitude of calcium transients, fluorescence ratio ([1]; 30 μM ATP, day 14 of differentiation, all the cells tested, n=80): ≥ 3 F/FO
duration of elevated intracellular calcium level ([1]; 30 μM ATP, regardless of the differentiation period (day 7 and day 14)): ≥ 50 s

N#CC(=C(/N)Sc1ccccc1N)/C(C#N)=C(\N)Sc1ccccc1N [U0126]
cell death ([3]; 20 μM): did not induce significant cell death
cell proliferation ([3]; 20 μM): tended to slightly decrease cell proliferation
GFAP-positive cells (astrocytes) in total cells ([3]; 20 μM, Treatment Condition 3: two days from day 12 to day 14 of differentiation): 26.88%
number of SOX1-positive cells ([3]; 20 μM, among treatment groups, day 14): not significantly different among the groups
morphology of GFAP-positive cells ([3]; 20 μM, compared with vehicle-treated group, correlated with exposure time): small cell body with fewer short processes
number of GFAP-positive cells ([3]; 20 μM, prolonged treatment (Treatment Condition 1 or 2), day 14): significantly reduced the number of GFAP-positive cells
astrocyte differentiation (fluorescence images for GFAP and SOX1) ([3]; pharmacological inhibition of the MAPK signaling pathway, FIG. 8D): robust suppression of astrocyte differentiation
